Laboratory results published in US20090093473A1, “Spiro-benzimidazoles as inhibitors of gastric acid secretion” (priority 2005, published 2009).

Assays:
[1] = test system: pentagastrin-stimulated acid secretion of the perfused rat stomach; assay: Secretion-inhibiting action on the perfused rat stomach (pentagastrin-stimulated acid secretion); assay type: in vivo; settings: intraduodenal, anesthetized CD rat, dose 1 μmol/kg i.d.
Description: Testing of the Secretion-Inhibiting Action on the Perfused Rat Stomach
In Table A which follows, the influence of the compounds of the formula 1 according to the invention on the pentagastrin-stimulated acid secretion of the perfused rat stomach after intraduodenal administration in vivo is shown.
The abdomen of anesthetized rats (CD rat, female, 200-250 g; 1.5 g/kg i.m. urethane) was opened after tracheotomy by a median upper abdominal incision and a PVC catheter was fixed transorally in the esophagus and another via the pylorus such that the ends of the tubes just projected into the gastric lumen. The catheter leading from the pylorus led outward into the right abdominal wall through a side opening.
After thorough rinsing (about 50-100 ml), warm (37° C.) physiological NaCl solution was conbinuously passed through the stomach (0.5 ml/min, pH 6.8-6.9; Braun-Unita I). The pH (pH meter 632, glass electrode EA 147; φ=5 mm, Metrohm) and, by titration with a freshly prepared 0.01N NaOH solution to pH 7 (Dosimat 665 Metrohm), the secreted HCl were determined in the effluent in each case collected at an interval of 15 minutes.
The gastric secretion was stimulated by continuous infusion of 1 μg/kg (=1.65 mllh) of i.v. pentagastrin (left femoral vein) about 30 min after the end of the operation (i.e. after determination of 2 preliminary fractions). The substances to be tested were administered intraduodenally in a 2.5 ml/kg liquid volume 60 min after the start of the continuous pentagastrin infusion. The body temperature of the animals was kept at a constant 37.8-38° C. by infrared irradiation and heat pads (automatic, stepless control by means of a rectal temperature sensor).

| melting point [°C] | SMILES | inhibition in vivo at 1 µmol/kg [1] [%] |
| --- | --- | --- |
| 222 to 223 | Cc1nc2c3c(c(C(=O)N4CCC4)cc2n1C)CCC1(Cc2ccccc2C1)N3 [Example 23, 5-(azetidin-1-ylcarbonyl)-2,3-dimethyl-1′,3,3′,6,7,9-hexahydrospiro[imidazo[4,5-h]-quinoline-8,2′-indene]] | > 80 |
| 247 to 248 | Cc1nc2c3c(c(C(=O)NC4CC4)cc2n1C)CCC1(Cc2ccccc2C1)N3 [Example 24, N-cyclopropyl-2,3-dimethyl-1′,3,3′,6,7,9-hexahydrospiro[imidazo[4,5-h]quinoline-8,2′-indene]-5-carboxamide] | > 80 |
| 284 to 285 | Cc1nc2c3c(c(C(=O)N4CCOCC4)cc2n1C)CCC1(Cc2ccccc2C1)N3 [Example 25, 2,3-dimethyl-5-(morpholin-4-ylcarbonyl)-1′,3,3′,6,7,9-hexahydrospiro[imidazo[4,5-h]-quinoline-8,2′-indene]] | > 80 |
| 188 to 189 | COCCCNC(=O)c1cc2c(nc(C)n2C)c2c1CCC1(Cc3ccccc3C1)N2 [Example 27, N-(3-methoxypropyl)-2,3-dimethyl-1′,3,3′,6,7,9-hexahydrospiro[imidazo[4,5-h]quinoline-8,2′-indene]-5-carboxamide] | > 80 |
